The results in this text go back to EP0191399A2, “Benz[a]anthraquinone compounds, a microbial process for their preparation and their use as medicaments” (priority 1985, dated 1986).

In brackets after ≈: the same amount, converted by molar mass.

Tested on in the first data set: not listed separately
The data set can be described thus: Stability (physicochemical properties, Table 5). The settings on record: light, acid, alkali, silica gel.
Take `CC1OC(OC2CCC(OC3(C)CC(=O)C4(O)C5=C(C=CC4(O)C3)C(=O)c3c(ccc(C4CC(O)C(OC6C=CC(=O)C(C)O6)C(C)O4)c3O)C5=O)OC2C)C=CC1=O` (stereo not drawn) [MH190 Y1, Saquayamycin A]: the Stability entry is “instable against light, acid and alkali changed to MH190 Y2 on silica gel”.
Turning to `CC1OC(OC2CCC(OC3(C)CC(=O)C4(O)C5=C(C=CC4(O)C3)C(=O)c3c(ccc(C4CC(O)C(OC6CCC(=O)C(C)O6)C(C)O4)c3O)C5=O)OC2C)CCC1=O` (stereo not drawn) [MH190 Y3, Saquayamycin C], the Stability entry is “instable against light, acid and alkali”.
On the same count and under the same terms, the result for `CC1OC(OC2CCC(OC3(C)CC(=O)C4(O)C5=C(C=CC4(O)C3)C(=O)c3c(ccc(C4CC6OC7CC(=O)C(C)OC7OC6C(C)O4)c3O)C5=O)OC2C)CCC1=O` (stereo not drawn) [MH190 Y4, Saquayamycin D] reads “instable against light, acid and alkali”.

The next data set concerns Adriamycin-sensitive P388 leukemia cells (P388/S). Nature of the data set: Growth inhibition of cultured Adriamycin-sensitive P388 leukemia cells. Format: cell-based. As to conditions: Mus musculus, P388/S, read-out: IC50 (μg/ml) P388/S. From the text: The substance MH190 of the present invention are capable of inhibiting the growth of cultured Adriamycin-sensitive P388 leukemia cells (P388/S) and Adriamycin-resistant P388 leukemia cells (P388/ADR) in very low concentrations.
`COc1cccc2c1C(=O)c1c(O)c3c(c(O)c1C2=O)C[C@@](O)(C(=O)CO)C[C@@H]3O[C@H]1C[C@H](N)[C@H](O)[C@H](C)O1` [Adriamycin, reference compound]: the IC50 worked out at 0.012 µg/mL (≈ 0.0221 µM).
Same read-out and setting: the result for `CC1OC(OC2CCC(OC3(C)CC(=O)C4(O)C5=C(C=CC4(O)C3)C(=O)c3c(ccc(C4CC(O)C(OC6CCC(=O)C(C)O6)C(C)O4)c3O)C5=O)OC2C)CCC1=O` (stereo not drawn) [MH190 Y3, Saquayamycin C] reads 0.072 µg/mL (≈ 0.0873 µM).
`CC1OC(OC2CCC(OC3(C)CC(=O)C4(O)C5=C(C=CC4(O)C3)C(=O)c3c(ccc(C4CC6OC7CC(=O)C(C)OC7OC6C(C)O4)c3O)C5=O)OC2C)CCC1=O` (stereo not drawn) [MH190 Y4, Saquayamycin D]: the IC50 came out at 0.07 µg/mL (≈ 0.0851 µM).

Still in this data set, the particulars now being: Mus musculus; cultured P388/S cells; read-out: IC50 (μg/ml) P388/S.
Regarding `CC1OC(OC2CCC(OC3(C)CC(=O)C4(O)C5=C(C=CC4(O)C3)C(=O)c3c(ccc(C4CC(O)C(OC6C=CC(=O)C(C)O6)C(C)O4)c3O)C5=O)OC2C)C=CC1=O` (stereo not drawn) [MH190 Y1, Saquayamycin A], the IC50 was 0.067 µg/mL (≈ 0.0816 µM).

Tested on in a further data set: not listed separately
The data set can be described thus: Solubility in solvents (physicochemical properties, Table 5). The settings on record: solvents in which the substance is soluble.
For `CC1OC(OC2CCC(OC3(C)CC(=O)C4(O)C5=C(C=CC4(O)C3)C(=O)c3c(ccc(C4CC(O)C(OC6C=CC(=O)C(C)O6)C(C)O4)c3O)C5=O)OC2C)C=CC1=O` (stereo not drawn) [MH190 Y1, Saquayamycin A], the “Solubility (1) Soluble” value is listed as “CHCl3, ethyl acetate, butyl acetate, methanol, acetonitrile, acetone, dimethyl sulfoxide”.
Consider `CC1OC(OC2CCC(OC3(C)CC(=O)C4(O)C5=C(C=CC4(O)C3)C(=O)c3c(ccc(C4CC(O)C(OC6CCC(=O)C(C)O6)C(C)O4)c3O)C5=O)OC2C)CCC1=O` (stereo not drawn) [MH190 Y3, Saquayamycin C], for which the “Solubility (1) Soluble” value is “CHCl3, ethyl acetate, butyl acetate, methanol, acetonitrile, acetone, dimethyl sulfoxide”.
The same measure, in the same setting: the result for `CC1OC(OC2CCC(OC3(C)CC(=O)C4(O)C5=C(C=CC4(O)C3)C(=O)c3c(ccc(C4CC6OC7CC(=O)C(C)OC7OC6C(C)O4)c3O)C5=O)OC2C)CCC1=O` (stereo not drawn) [MH190 Y4, Saquayamycin D] reads “CHCl3, ethyl acetate, butyl acetate, methanol, acetonitrile, acetone, dimethyl sulfoxide”.

Still in this data set, the particulars now being: solvents in which the substance is sparingly soluble.
As to `CC1OC(OC2CCC(OC3(C)CC(=O)C4(O)C5=C(C=CC4(O)C3)C(=O)c3c(ccc(C4CC(O)C(OC6C=CC(=O)C(C)O6)C(C)O4)c3O)C5=O)OC2C)C=CC1=O` (stereo not drawn) [MH190 Y1, Saquayamycin A], the “Solubility (2) Sparingly soluble” value is “H2O, hexane, petroleum ether”.
Regarding `CC1OC(OC2CCC(OC3(C)CC(=O)C4(O)C5=C(C=CC4(O)C3)C(=O)c3c(ccc(C4CC(O)C(OC6CCC(=O)C(C)O6)C(C)O4)c3O)C5=O)OC2C)CCC1=O` (stereo not drawn) [MH190 Y3, Saquayamycin C], the “Solubility (2) Sparingly soluble” value is given as “H2O, hexane, petroleum ether”.
Same read-out and setting: as for `CC1OC(OC2CCC(OC3(C)CC(=O)C4(O)C5=C(C=CC4(O)C3)C(=O)c3c(ccc(C4CC6OC7CC(=O)C(C)OC7OC6C(C)O4)c3O)C5=O)OC2C)CCC1=O` (stereo not drawn) [MH190 Y4, Saquayamycin D], the entry is “H2O, hexane, petroleum ether”.

The test system of the next data set is Adriamycin-resistant P388 leukemia cells (P388/ADR). Nature of the data set: Growth inhibition of cultured Adriamycin-resistant (multi-drug resistant) P388 leukemia cells. Format: cell-based. The settings on record: Mus musculus, P388/ADR, read-out: IC50 (μg/ml) P388/ADR.
With `CC1OC(OC2CCC(OC3(C)CC(=O)C4(O)C5=C(C=CC4(O)C3)C(=O)c3c(ccc(C4CC(O)C(OC6CCC(=O)C(C)O6)C(C)O4)c3O)C5=O)OC2C)CCC1=O` (stereo not drawn) [MH190 Y3, Saquayamycin C], the IC50 came out at 0.06 µg/mL (≈ 0.0727 µM).
The same measure, in the same setting: as for `CC1OC(OC2CCC(OC3(C)CC(=O)C4(O)C5=C(C=CC4(O)C3)C(=O)c3c(ccc(C4CC6OC7CC(=O)C(C)OC7OC6C(C)O4)c3O)C5=O)OC2C)CCC1=O` (stereo not drawn) [MH190 Y4, Saquayamycin D], the figure is 0.06 µg/mL (≈ 0.0729 µM).

Still in this data set, the particulars now being: Mus musculus; cultured P388/ADR cells; read-out: IC50 (μg/ml) P388/ADR.
For `CC1OC(OC2CCC(OC3(C)CC(=O)C4(O)C5=C(C=CC4(O)C3)C(=O)c3c(ccc(C4CC(O)C(OC6C=CC(=O)C(C)O6)C(C)O4)c3O)C5=O)OC2C)C=CC1=O` (stereo not drawn) [MH190 Y1, Saquayamycin A], the IC50 was determined as 0.056 µg/mL (≈ 0.0682 µM).
Consider `COc1cccc2c1C(=O)c1c(O)c3c(c(O)c1C2=O)C[C@@](O)(C(=O)CO)C[C@@H]3O[C@H]1C[C@H](N)[C@H](O)[C@H](C)O1` [Adriamycin, reference compound], for which the IC50 is 0.38 µg/mL (≈ 0.699 µM).

Staying with this data set, now noted: ratio of IC50 P388/ADR to IC50 P388/S.
Consider `CC1OC(OC2CCC(OC3(C)CC(=O)C4(O)C5=C(C=CC4(O)C3)C(=O)c3c(ccc(C4CC(O)C(OC6C=CC(=O)C(C)O6)C(C)O4)c3O)C5=O)OC2C)C=CC1=O` (stereo not drawn) [MH190 Y1, Saquayamycin A], for which the “Ratio (P388/ADR to P388/S)” value stood at 0.84.
With `COc1cccc2c1C(=O)c1c(O)c3c(c(O)c1C2=O)C[C@@](O)(C(=O)CO)C[C@@H]3O[C@H]1C[C@H](N)[C@H](O)[C@H](C)O1` [Adriamycin, reference compound], the “Ratio (P388/ADR to P388/S)” value came to 31.7.
Still for that read-out and setting: the result for `CC1OC(OC2CCC(OC3(C)CC(=O)C4(O)C5=C(C=CC4(O)C3)C(=O)c3c(ccc(C4CC(O)C(OC6CCC(=O)C(C)O6)C(C)O4)c3O)C5=O)OC2C)CCC1=O` (stereo not drawn) [MH190 Y3, Saquayamycin C] reads 0.83; that for `CC1OC(OC2CCC(OC3(C)CC(=O)C4(O)C5=C(C=CC4(O)C3)C(=O)c3c(ccc(C4CC6OC7CC(=O)C(C)OC7OC6C(C)O4)c3O)C5=O)OC2C)CCC1=O` (stereo not drawn) [MH190 Y4, Saquayamycin D], 0.86.
